Test results taken from patent US11602529B2, “Use of EZH2 inhibitors for treating cancer” (Epizyme, Inc., priority 2017, dated 2023).

Legend:
[1] = In vivo efficacy in animal models
Oral bioavailability = details: in vivo
[2] = tested on: genetically defined cancer cells; test: Target methyl mark inhibition and killing of cancer cells in vitro; assay type: cell-based
[3] = tested on: refractory B-cell non-Hodgkin lymphoma and advanced solid tumors, including epithelioid sarcoma; details: cited from earlier work
epithelioid sarcoma = test: PD-L1, CD4 and CD8 staining of pre- and post-dose tissue biopsies of a subject with epithelioid sarcoma
soft tissue sarcoma = test: Post-treatment biopsy of patients with soft tissue sarcoma (Example 2)

- oral bioavailability (Oral bioavailability): orally bioavailable
SMILES: CCN(c1cc(-c2ccc(CN3CCOCC3)cc2)cc(C(=O)NCc2c(C)cc(C)[nH]c2=O)c1C)C1CCOCC1 [Compound 44, tazemetostat]
- in vivo efficacy following inhibition of target methyl mark [1]: sustained in vivo efficacy
- effect of target methyl mark inhibition on cancer cells [2]: killing of genetically defined cancer cells in vitro
- PD-L1 expression in tumor sample ([3]; after 4 weeks of treatment): modest expression of PD-L1 on immune cells
- histological assessment of on-treatment tumor specimen ([3]; not present at baseline nor at disease progression): strong immune infiltrate
- clinical activity in patients ([3]; phase I clinical study): antitumor activity
- PD-L1 expression in tumor after treatment (epithelioid sarcoma; 800 mg twice daily orally, 25 weeks, post-dose vs pre-dose biopsy): upregulated PD-L1
- T-cell markers CD4 and CD8 in tumors with upregulated PD-L1 (epithelioid sarcoma; after treatment): positive for T-cell markers CD4 and CD8
- CD8+ immune cells, share of overall cellularity (epithelioid sarcoma; post-dose sample, 800 mg twice daily orally, 25 weeks (pre-dose about 5%)): about 30%
- CD4+ histiocytoid cells, cellularity (epithelioid sarcoma; post-dose sample, 800 mg twice daily orally, 25 weeks (pre-dose about 20%)): about 5%
- CD4+ cells, share of overall cellularity (epithelioid sarcoma; post-dose sample, 800 mg twice daily orally, 25 weeks (pre-dose also about 2%)): about 2%
- cells present in the tumor showing expression of PD-L1 (soft tissue sarcoma; biopsy after 20 weeks of treatment): more than 50%
- cells present in the tumor showing expression of PD-L1 (soft tissue sarcoma; second patient, biopsy after 25 weeks of treatment): more than 80%
